Patent US4835168A, “Thiadiazole antiviral agents” (Eli Lilly and Company, priority 1988, dated 1989)
In brackets after ≈: the same amount, converted by molar mass. Entries after “also recorded” stand apart in the source; their conditions may differ. Structures can show the parent of a compound that is named as a salt. Where two headings read alike, the source gives them in different places.

Assays:
influenza B-Great Lake [1] = assay: plaque-reduction study in MDCK cells (Table III); type: cell-based; settings: for IC50: MDCK, read-out: IC50, inhibition of plaque formation by 50 percent
influenza Al-Ann Arbor [2] = assay: plaque-reduction study in MDCK cells (Table III); type: cell-based; settings: for IC50: MDCK, read-out: IC50, inhibition of plaque formation by 50 percent
influenza A-NWS = assay: plaque-reduction study in MDCK cells (Table III); type: cell-based; settings: values marked *: one discordant test >50 not incorporated; for IC50: MDCK, read-out: IC50, inhibition of plaque formation by 50 percent
[3] = test system: influenza A1-Ann Arbor strain; assay: in vivo mouse influenza test, survival index, relative activity (Table I); settings: CD-1 mice, 10 days
HSV I = assay: in vivo antiviral test in mouse (Table IV); settings: drinking water, more survivors than control
Procedure: (§1) As previously mentioned, in vivo antiviral test results may vary due to numerous factors. […] The compounds of Examples 1 and 7 were tested against several different viruses using different kinds of test animals and different modes of oral and topical administration. In Table IV below, Column 1 indicated the test compound, while Column 2 discloses the virus the compound was employed against. Columns 3 and 4 describe the test animal and the method of administration, respectively. Finally, Column 5 discloses whether or not antiviral activity was shown.

Herpes I = assay: plaque-reduction test (Table V); type: cell-based; settings: BSCl cells, read-out: IC50, inhibition of plaque formation by 50 percent
Vaccinia = assay: microbe, parasite or virus in culture; type: cell-based; settings: Orthopoxvirus vaccinia, read-out: IC50, inhibition of plaque formation by 50 percent
[4] = in vivo conversion to salt form of the compound of Example 6
Semliki Forest = assay: plaque-reduction test (Table V); type: cell-based; settings: BSCl cells, read-out: IC50, inhibition of plaque formation by 50 percent
Parainfluenza (type 3) = assay: plaque-reduction test (Table V); type: cell-based; settings: read-out: IC50, inhibition of plaque formation by 50 percent
RSV = assay: in vivo antiviral test in hamster (Table IV); settings: reduction in nasal washing virus titer vs control
Procedure: as §1

[5] = test system: Vesicular Stomatitus Virus; assay: in vitro activity against Vesicular Stomatitus Virus; type: cell-based
influenza Al-Ann Arbor [6] = assay: survival of infected mice, oral in diet (Table II); type: in vivo; settings: control 0/50
Description: (§2) Again, due to the nature of in vivo antiviral tests the in vivo antiviral influenza activity of the compounds can vary. […] A typical test would run for at least ten days.

influenza B-Great Lake [7] = assay: survival of infected mice, oral in diet (Table II); type: in vivo; settings: control 3/36
Description: as §2

influenza A-Texas = assay: survival of infected mice, oral in diet (Table II); type: in vivo; settings: control 8/36
Description: as §2

influenza B-Taiwan = assay: survival of infected mice, oral in diet (Table II); type: in vivo; settings: control 1/36
Description: as §2

influenza A-Brazil = assay: survival of infected mice, oral in diet (Table II); type: in vivo; settings: control 10/28
Description: as §2

influenza B-Maryland = assay: survival of infected mice, oral in diet (Table II); type: in vivo; settings: control 14/50
Description: as §2

influenza B-Hong Kong = assay: survival of infected mice, oral in diet (Table II); type: in vivo; settings: control 4/50
Description: as §2

[8] = Malinoski et al., Virology 1981; cited from earlier work
Herpes II = assay: plaque-reduction test (Table V); type: cell-based; settings: BSCl cells, read-out: IC50, inhibition of plaque formation by 50 percent
HSV II = assay: in vivo antiviral test in guinea pig (Table IV); settings: topical cream, fewer lesions than control
Procedure: as §1

Friend Leukemia = assay: preliminary testing against retroviruses
HIV = assay: preliminary testing against retroviruses

SMILES: NC(N)=Nc1nncs1 [Example 8, 1,3,4-Thiadiazole-2-guanidine]
- IC50 (influenza B-Great Lake [1]): 0.27 µg/mL (≈ 1.89 µM)
- IC50 (influenza Al-Ann Arbor [2]): 0.02 µg/mL (≈ 0.14 µM)

SMILES: NC(=Nc1nncs1)SCc1ccccn1 [Example 4, N^1-1,3,4-thiadiazol-2-ylcarbamimidothioic acid, 2-pyridinylmethyl ester, hydrochloride]
- IC50 (influenza B-Great Lake [1]): > 50 µg/mL
- IC50 (influenza A-NWS): > 50 µg/mL
- RA (relative activity index from P, percent of maximum survival index) [3]: 2.5

SMILES: O=C(NC(=S)Nc1nncs1)Oc1ccccc1 [Preparation 3, [(1,3,4-Thiadiazol-2-ylamino)thioxomethyl]carbamic acid, phenyl ester]
- IC50 (influenza A-NWS): < 1.6 µg/mL
- RA (relative activity index from P, percent of maximum survival index) [3]: 5 (80-100% = 5 (very active))

SMILES: CCCCSC(N)=Nc1nncs1 [Example 3, N^1-1,3,4-thiadiazol-2-ylcarbamimidothioic acid, n-butyl ester]
- IC50 (influenza B-Great Lake [1]): > 50 µg/mL
- IC50 (influenza A-NWS): 21.3 µg/mL (≈ 98.5 µM)
- RA (relative activity index from P, percent of maximum survival index) [3]: 5 (80-100% = 5 (very active))

SMILES: N#CCSC(N)=Nc1nncs1 [Example 5, N^1-1,3,4-thiadiazol-2-ylcarbamimidothioic acid, cyanomethyl ester]
- RA (relative activity index from P, percent of maximum survival index) [3]: 2.5

SMILES: CSC(N)=Nc1nncs1 [Example 1, N^1-1,3,4-thiadiazol-2-ylcarbamimidothioic acid, methyl ester]
- IC50 (influenza B-Great Lake [1]): 16.3 µg/mL (≈ 93.5 µM)
- antiviral activity shown (Result) (HSV I): active
- IC50 (influenza Al-Ann Arbor [2]): 0.68 µg/mL (≈ 3.9 µM)
- IC50 (Herpes I): 9.6 µg/mL (≈ 55.1 µM)
- IC50 (Vaccinia): 15.8 µg/mL (≈ 90.7 µM)
- conversion in vivo to a salt form of the compound of Example 6 [4]: converted to a salt form of the compound of Example 6; also recorded: converted in vivo to a salt form
- IC50 (Semliki Forest): 43 µg/mL (≈ 247 µM)
- IC50 (Parainfluenza (type 3); BSCl cells): 4.5 µg/mL (≈ 25.8 µM)
- IC50 (Parainfluenza (type 3); HELA cells): > 25 µg/mL
- antiviral activity shown (Result) (RSV; drinking water): active
- RA (relative activity index from P, percent of maximum survival index) [3]: 5 (80-100% = 5 (very active))

SMILES: N#CNc1nncs1 [Example 6, 1,3,4-Thiadiazole-2-cyanamide]
- IC50, inhibition of plaque formation by 50 percent (influenza B-Great Lake [1]): 2.25 MCG/ML
- IC50 (influenza Al-Ann Arbor [2]): 0.85 µg/mL (≈ 6.74 µM)
- IC50 (influenza A-NWS): 0.78 µg/mL (≈ 6.18 µM)

SMILES: NC(=S)Nc1nncs1 [Preparation 2, 1,3,4-Thiadiazol-2-ylthiourea]
- IC50 (influenza B-Great Lake [1]): 7 µg/mL (≈ 43.7 µM)
- IC50 (influenza Al-Ann Arbor [2]): > 50 µg/mL
- in vitro activity against Vesicular Stomatitus Virus [5]: displays in vitro activity
- number of animals surviving over number tested (S/N) (influenza Al-Ann Arbor [6]; 60 mg/kg/day): 20/20
- number of animals surviving over number tested (S/N) (influenza Al-Ann Arbor [6]; 120 mg/kg/day): 20/20
- number of animals surviving over number tested (S/N) (influenza B-Great Lake [7]; 15 mg/kg/day): 11/18
- number of animals surviving over number tested (S/N) (influenza B-Great Lake [7]; 30 mg/kg/day): 16/18
- number of animals surviving over number tested (S/N) (influenza B-Great Lake [7]; 60 mg/kg/day): 17/18
- number of animals surviving over number tested (S/N) (influenza B-Great Lake [7]; 120 mg/kg/day): 18/18
- number of animals surviving over number tested (S/N) (influenza A-Texas; 15 mg/kg/day): 5/18
- number of animals surviving over number tested (S/N) (influenza A-Texas; 30 mg/kg/day): 8/18
- number of animals surviving over number tested (S/N) (influenza A-Texas; 60 mg/kg/day): 12/18
- number of animals surviving over number tested (S/N) (influenza A-Texas; 120 mg/kg/day): 16/18
- number of animals surviving over number tested (S/N) (influenza B-Taiwan; 15 mg/kg/day): 4/18
- number of animals surviving over number tested (S/N) (influenza B-Taiwan; 30 mg/kg/day): 15/18
- number of animals surviving over number tested (S/N) (influenza B-Taiwan; 60 mg/kg/day): 18/18
- number of animals surviving over number tested (S/N) (influenza B-Taiwan; 120 mg/kg/day): 18/18
- number of animals surviving over number tested (S/N) (influenza A-Brazil; 15 mg/kg/day): 5/15
- number of animals surviving over number tested (S/N) (influenza A-Brazil; 30 mg/kg/day): 5/16
- number of animals surviving over number tested (S/N) (influenza A-Brazil; 60 mg/kg/day): 12/18
- number of animals surviving over number tested (S/N) (influenza A-Brazil; 120 mg/kg/day): 14/18
- number of animals surviving over number tested (S/N) (influenza B-Maryland; 60 mg/kg/day): 19/20
- number of animals surviving over number tested (S/N) (influenza B-Maryland; 120 mg/kg/day): 20/20
- number of animals surviving over number tested (S/N) (influenza B-Hong Kong; 60 mg/kg/day): 10/20
- number of animals surviving over number tested (S/N) (influenza B-Hong Kong; 120 mg/kg/day): 16/20
- IC50 (influenza A-NWS): 3.6 µg/mL (≈ 22.5 µM)

SMILES: CCCCCCOC(=O)NC(=S)Nc1nncs1 [Preparation 4, [(1,3,4-Thiadiazol-2-ylamino)thioxomethyl]carbamic acid, n-hexyl ester]
- RA (relative activity index from P, percent of maximum survival index) [3]: 5 (80-100% = 5 (very active))

SMILES: CCOC(=O)N=C(Nc1nncs1)SC [Preparation 7, [(Methylthio)(1,3,4-thiadiazol-2-ylamino)methyl]carbamic acid, ethyl ester]
- IC50 (influenza A-NWS): 75.5 µg/mL (≈ 307 µM)
- RA (relative activity index from P, percent of maximum survival index) [3]: 5 (80-100% = 5 (very active))

SMILES: C=COC(=O)NC(=S)Nc1nncs1 [Preparation 6, [(1,3,4-thiadiazol-2-ylamino)thioxomethyl]carbamic acid, vinyl ester]
- RA (relative activity index from P, percent of maximum survival index) [3]: 4 (60-80% = 4 (good activity))

SMILES: Nc1nncs1 [2-amino-1,3,4-thiadiazole]
- antiviral activity [8]: certain antiviral activity

SMILES: COC(=O)NC(=S)Nc1nncs1 [Preparation 5, [(1,3,4-thiadiazol-2-ylamino)thioxomethyl]carbamic acid, methyl ester]
- RA (relative activity index from P, percent of maximum survival index) [3]: 5 (80-100% = 5 (very active))

SMILES: CCOC(=O)N=C(Nc1nncs1)SCC [Preparation 8]
- IC50 (influenza A-NWS): > 50 µg/mL
- RA (relative activity index from P, percent of maximum survival index) [3]: 5 (80-100% = 5 (very active))

SMILES: CCSC(N)=Nc1nncs1 [Example 2, N^1-1,3,4-thiadiazol-2-ylcarbamimidothioic acid, ethyl ester]
- IC50 (influenza B-Great Lake [1]): 9.5 µg/mL (≈ 50.5 µM)
- IC50 (influenza A-NWS): 18.9 µg/mL (≈ 100 µM)
- RA (relative activity index from P, percent of maximum survival index) [3]: 5 (80-100% = 5 (very active))

SMILES: N#CNc1nncs1 [Example 7, 1,3,4-Thiadiazole-2-cyanamide Sodium salt]
- IC50, inhibition of plaque formation by 50 percent (influenza B-Great Lake [1]; Sodium salt): 1.00 MCG/ML
- IC50 (Herpes II): 0.19 µg/mL
- antiviral activity shown (Result) (HSV I): active
- antiviral activity shown (Result) (HSV II): active
- activity against retroviruses (Friend Leukemia): failed to demonstrate conclusive activity
- IC50, inhibition of plaque formation by 50 percent (influenza Al-Ann Arbor [2]; Sodium salt): 0.82 MCG/ML
- IC50 (Herpes I): 2.95 µg/mL
- in vitro activity against Vesicular Stomatitus Virus [5]: does not
- IC50 (Vaccinia; Vero): 0.29 µg/mL
- IC50 (Vaccinia): < 0.31 µg/mL
- IC50, inhibition of plaque formation by 50 percent (influenza A-NWS; Sodium salt): 0.58 MCG/ML
- IC50 (Semliki Forest): < 0.23 µg/mL
- activity against retroviruses (HIV): failed to demonstrate conclusive activity
- IC50 (Parainfluenza (type 3); BSCl cells): 0.14 µg/mL
- IC50 (Parainfluenza (type 3); HELA cells): 0.72 µg/mL
- antiviral activity shown (Result) (RSV; food): active

SMILES: CCOC(=O)NC(=S)Nc1nncs1 [Preparation 1, [(1,3,4-Thiadiazol-2-ylamino)thioxomethyl]carbamic acid, ethyl ester]
- IC50 (influenza B-Great Lake [1]): > 50 µg/mL
- IC50 (influenza A-NWS): 43 µg/mL (≈ 185 µM)
- RA (relative activity index from P, percent of maximum survival index) [3]: 4.5
